# Source: patent US20040171613A1, “Therapeutic agent for non-immediate type allergic diseases” (JAPAN TOBACCO INC., priority 2001, published 2004)
# Like-named read-outs stand apart in the source and are kept apart here.
# Assays:
# [1] = test system: DNFB-induced allergic dermatitis; test: murine DNFB-induced allergic dermatitis model; assay type: in vivo, mouse; details: 24 hours after the fifth antigen application; oral dosing
# Method: The model is produced by repeating antigen sensitization and induction in mouse to induce contact dermatitis that involves increase of IgE antibody titer, i.e., inflammation similar to atopic dermatitis (J. Allergy Clin. Immunol., 100 (6Pt2), 39-44, December 1997).
# Furthermore, by dilution, 0.1 mg/mL and 0.01 mg/mL suspensions were prepared. In addition, as positive controls, 0.5 mg/mL, 0.2 mg/mL and 0.1 mg/mL solutions of prednisolone (Sigma) were similarly prepared.
# During the period from the next day of the third antigen application to the next day of the fifth antigen application, 10 mL/kg of the above-described test compound was administered once a day 15 times in total.
# The difference of thickness was used as an index of swelling. FIGS. 1 and 2 show the results of the measurement at the fourth and fifth antigen applications, together with the results of the positive controls.
# 24 hours after the fifth antigen application, the spleen was harvested from the mouse exsanguinated under anesthesia with ether. The wet weight of the spleen was measured.
# antigen-induced asthma = test: antigen-induced immediate type asthma, late-type asthma and airway hypersensitivity in guinea pigs; assay type: in vivo, guinea pig; details: oral, compound A 10, 30, 100 mg/kg, positive controls 30 mg/kg
# Method: The test compound was further diluted to 20, 6 and 2 mg/mL on needed basis. As positive controls, 6 mg/mL pranlukast hydrate (extracted from Onon™ (Ono Pharmaceutical Co., Ltd.)) and 6 mg/mL prednisolone (Sigma) were similarly prepared.
# Sensitization: Using an ultrasonic nebulizer (NE-U12; OMRON), a 6-weeks old male Hartley guinea pig (Kudo, Co., Ltd.) was continuously inhaled with 1% OVA (ovalbumin; Sigma)-containing physiological saline for 10 minutes per day for 8 consecutive days.
# Antigen challenge: One week after the last sensitization, 2% OVA was similarly inhaled for 5 minutes. 24 hours before and one hour after the OVA challenge, metyrapone-containing physiological saline (Aldrich, 10 mg/mL) was administered intravenously and 30 minutes before the OVA induction, pyrilamine-containing physiological saline (Sigma, 10 mg/kg) was administered intraperitoneally.
# During the 8 days of sensitization, the test compound was given one hour before the sensitization. On the day of the antigen challenge, the test compound was given one hour before the challenge. As solvent controls, the vehicle was similarly administered in accordance with OVA induction and physiological saline induction.
# As positive controls, pranlukast hydrate was administered one hour before the challenge, while prednisolone was administered 16 hours and 2 hours before the challenge. The animals were fasted 16 to 18 hours before the oral administration.
# Using total respiratory function analysis system (Pulmos-I, M.I.P.S. Company), the pre value was measured. Subsequently, specific airway resistance (hereinafter referred to as sRaw) per 100 breathes was measured one minute and 2, 4, 5, 6, 7 and 8 hours after the OVA challenge, and further once between 22 to 26 hours after the challenge, respectively. The average was used as sRaw at each measured time point. The increment ratio of sRaw was calculated by the following formula.
# Increment ratio of sRaw (%)=[(sRaw at each measured time point −sRaw before the challenge)/(sRaw before the challenge)]×100
# Twenty-two to 26 hours after the antigen challenge, each of 0.0625, 0.125, 0.25, 0.5, 1 and 2 mg/mL solutions of physiological saline and acetylcholine (hereinafter referred to as ACh) were sequentially inhaled for one minute, until the sRaw was 2-fold or more to the baseline sRaw (sRaw after inhalation of physiological saline). Based on the ACh concentration and the concentration-resistance curve of sRaw, the ACh concentration required for the sRaw to achieve 100% increase from the baseline sRaw, i.e., PC100ACh was determined.
# [2] = test system: IgE-dependent allergic dermatitis
# Method: (§2) Using a triphase dermatitis model that can be induced by antigen in mouse passively sensitizationed with IgE, the actions of CB2 inverse agonist and CB2 agonist were examined.
# (§3) *Animal: 8 to 10 weeks-old Female BALB/c mouse (Japan SLC Inc.) was used.
# (§4) Preparation of solvent: MC was dissolved in distilled water to prepare an aqueous 0.5% MC solution.
# (§5) Anti-DNP IgE (antibody against DNP; Yamasa Corp.) was prepared to 15 μg/mL with physiological saline. 0.2 mL of the resulting solution was given through the caudal vein to the mouse.
# (§6) Antigen preparation: 0.15% (w/v) of DNFB (2,4-dinitrofluorobenzene) was prepared in a mixed solution of acetone and olive oil (3:1, v/v) on needed basis.
# (§7) Antigen application: 25 μl of the antigen solution was applied on each side of both of the ears 24 hours after the administration of the anti-DNP IgE.
# (§8) From the next day of the antigen application to day 8 after the antigen application, 10 mL/kg test compound was orally administered once a day 9 times in total. On the day of antigen application, the test compound was administered one hour before the antigen application and the test compound was administered one hour before the measurement of the thickness of the ear on day 8 after the antigen application.
# (§9) Before and 8 days after the antigen application, the thickness of the ear was measured with a dial thickness gauge (Mitutoyo Corp.). The difference between the value measured before the antigen application and at each time point was used as an index of swelling.
# (§10) After the measurement of ear swelling, spleen and thymus were harvested to weigh their wet weights.
# [3] = test system: spontaneous scratching reaction; test: spontaneous scratching reaction of NC mouse; assay type: in vivo; details: NC/Jic mice; oral once a day for 3 weeks; vs solvent control
# Excerpt: Currently, NC mouse is used as an animal model of atopic dermatitis. No dermatitis or scratching action is observed when the mouse is kept in an environment under the control of atmospheric microorganisms (in SPF environment). However, when the mouse is kept in a conventional environment, scratching action together with the onset of dermatitis can be observed from about week 8 and the symptom progresses into chronic symptom (J. Dermatol. Sci., 25, 20-28, 2001).
# Preparation of solvent: MC was dissolved in tap water to prepare an aqueous 0.5% (w/v) MC solution.
# As positive controls, betamethasone valerate (Sigma) and tacrolimus hydrate (extracted from Prograf (Fujisawa Pharmaceutical Co., Ltd.)) were similarly prepared to 1 mg/mL. Betamethasone valerate is one of the adrenocorticosteroids that is considered to be effective for the treatment of atopic dermatitis. Tacrolimus hydrate is a therapeutic agent of atopic dermatitis which is known as an immunosuppressor as described above.
# The mice (A) were taken away from the cage and the NC/Jic mice were used at the age of 16 weeks.
# Breeding conditions: The mice were fed with solid feed CA-1 (CLEA JAPAN INC.) ad libitum and tap water as drinking water ad libitum, and kept at a temperature of 22±2° C. and a humidity of 55±10% under lighting from 8:00 a.m. to 20:00 p.m.
# From 10 days before the start of the experiment, the number of scratching behavior with hind legs of the mice was visually counted (for 20 minutes; once daily) over 2 days or 3 days. Among the plural mice counted, mice with 50 or more average scratching movements per day were selected for use.
# The behavior of the mice was filmed under unattended environment with a video camera to count the scratching motion with hind legs for one hour. […] This series of scratching motions was counted as one scratching movement, and all such scratching movements were counted irrespective of scratched sites. The measurement was done on the starting day of administration, and one day, 3, 6, 10, 13, 17 and 20 days after the start of administration. […]
# CB2 [4] = molecular target: T1, CB2 (Homo sapiens, UniProt P34972); test: cAMP production in forskolin-stimulated hCB2-expressing CHO cells; assay type: cell-based; design: expressed in transfected cells; host or cells: CHO cells; details: for remaining activity at 0.1 µM: CHO, Forskolin (5 μM) + compound 0.1 μM, read-out: Amount of cAMP production compared to control (ratio (%))
# Target sequence in this assay (P34972 whole entry): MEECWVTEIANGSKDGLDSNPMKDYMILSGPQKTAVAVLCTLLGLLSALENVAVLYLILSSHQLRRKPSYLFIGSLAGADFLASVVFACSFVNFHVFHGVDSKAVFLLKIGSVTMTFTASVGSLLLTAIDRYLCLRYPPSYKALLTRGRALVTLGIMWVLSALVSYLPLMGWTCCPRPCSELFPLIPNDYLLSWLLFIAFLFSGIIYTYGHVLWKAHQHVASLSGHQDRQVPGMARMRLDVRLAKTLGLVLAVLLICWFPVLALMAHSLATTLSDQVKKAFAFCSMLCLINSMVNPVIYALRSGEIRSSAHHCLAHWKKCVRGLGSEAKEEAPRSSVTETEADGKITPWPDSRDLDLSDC
# [5] = test system: IgE-dependent allergic dermatitis; details: mouse, in vivo, po
# Method: as §2, §3, §4, §5, §6, §7, §8, §9, §10
# CB2 [6] = molecular target: T1, CB2; design: host or cells: CHO cells expressing CB2; details: CB2 expressing CHO cells; non-patent reference 3; cited from earlier work
# Target sequence in this assay (P34972 whole entry, species assumed): as the sequence (P34972 whole entry) above
# mouse ear = test: ear swelling induced by application of CB2 agonist or arachidonic acid; assay type: in vivo
# Method: Therefore, 2-arachidonoylglycerol ether (2-AG-E), the stable form of an endogenous ligand candidate 2-arachidonoylglycerol, and a specific CB2 agonist HU-308 were examined whether they directly induce ear swelling and compared to the ear swelling induced by arachidonic acid (AA).
# Synthetically produced 2-AG-E and HU-308 were prepared with acetone to 1 or 10% (w/v) and 10% (w/v), respectively, and AA (Sigma) was prepared with acetone to 1.25% (w/v), on needed basis. 10 μL each of these substances was applied on each side of the left ear.
# [7] = test system: wild-type and CB2-deficient mice; test: 2-AG-E-induced ear swelling in CB2-deficient mice; assay type: in vivo, mouse
# Method: As described under the item of “7. IgE-dependent ear swelling in CB2-deficient mice”, female CB2-KO mice and female WT mice were used as experimental animals.
# 10 μL of 2-AG-E (100 mg/mL acetone) was applied on each side of the left ears of the mice on the first day of experiment.
# (§1) The swelling of the ear was measured over time before and after the application of 2-AG-E using a dial thickness gauge. The difference between the values measured before and after the antigen application was defined as the degree of ear swelling. Then, AUC (area under the curve: the degree of ear swelling ×time) was determined from the changes of the degree of ear swelling with the time course, and given as mean ± standard error (S.E.). Student's t-test was used in the statistical treatment. A significance level less than 5% was assumed to be significant.
# [8] = test system: WBB6F1-+/+ and WBB6F1-W/Wv mice; test: 2-AG-E-induced ear swelling in mast cell-deficient mice; assay type: in vivo, mouse; details: topical 2-AG-E 100 mg/mL
# Method: The degree of allergic symptoms was examined in mice deficient (partially deficient) of mast cells, which cells are considered to largely contribute to allergic reactions.
# Female mice of WBB6F1-+/+ (normal mouse) strain and WBB6F1-W/W^v (mast cell-deficient mouse) strain were purchased from Japan SLC, Inc. and used as experimental animals.
# 10 μL 2-AG-E (100 mg/mL acetone) was applied on each side of the left ears of the mice on the first day of experiment.
# as §1, with “AUC” for “AUC (area under the curve: the degree of ear swelling ×time)”, “changes in” for “changes of”, “time course” for “time course,”
# [9] = 8 days after antigen application, oral dosing
structure (smiles),measurement,setting,value
C[C@]12C=CC(=O)C=C1CC[C@@H]1[C@@H]2[C@@H](O)C[C@@]2(C)[C@H]1CC[C@]2(O)C(=O)CO [prednisolone],spleen wet weight,[1],decrease of spleen weight
same,airway hypersensitivity (PC100ACh),antigen-induced asthma; 22 to 26 hours after antigen challenge,suppressed
same,immediate type asthma response (sRaw immediately after antigen challenge),antigen-induced asthma,suppressed
same,late asthmatic response (sRaw over 4 to 8 hours after antigen challenge),antigen-induced asthma,suppressed
same,wet weight of the spleen,[2]; [9],significant suppression
same,wet weight of the thymus,[2]; [9],significant suppression
C=CC[C@@H]1/C=C(\C)C[C@H](C)C[C@H](OC)[C@H]2O[C@@](O)(C(=O)C(=O)N3CCCC[C@H]3C(=O)O[C@H](/C(C)=C/[C@@H]3CC[C@@H](O)[C@H](OC)C3)[C@H](C)[C@@H](O)CC1=O)[C@H](C)C[C@@H]2OC [tacrolimus hydrate],number of scratching movements,[3],suppressed the number of scratching movements
CCCCCOc1c(OC)ccc2cc(C(=O)NCCN3CCOCC3)c(=O)[nH]c12 [B],remaining activity at 0.1 µM,CB2 [4],430%
CCCCC(=O)O[C@]1(C(=O)CO)[C@@H](C)C[C@H]2[C@@H]3CCC4=CC(=O)C=C[C@]4(C)[C@@]3(F)[C@@H](O)C[C@@]21C [betamethasone valerate],number of scratching movements,[3],suppressed the number of scratching movements
CCCCCOc1c(OC)ccc2cc(C(=O)NCCc3ccncc3)c(=O)n(C)c12 [F],remaining activity at 0.1 µM,CB2 [4],218%
Cc1ccc(Cn2nc(C(=O)N[C@H]3C4(C)CCC(C4)C3(C)C)cc2-c2ccc(Cl)c(C)c2)cc1 (some centres unmarked) [SR144528],wet weight of the spleen,[5],no apparent changes
same,wet weight of the thymus,[5],no apparent changes
same,forskolin-stimulated cAMP production,CB2 [6],elevate the production of cyclic adenosine-phosphate (cAMP)
same,"ear swelling, very late phase","[2]; mouse, in vivo",significant effect
CCCCCCC(C)(C)c1cc(OC)c([C@@H]2C=C(CO)[C@@H]3C[C@H]2C3(C)C)c(OC)c1 [HU-308],wet weight of the spleen,[2]; [9],Significant decrease
same,"ear swelling, very late phase","[2]; 8 days after application, oral once a day, compound A 0.1, 1, 10 mg/kg, SR144528 0.1 mg/kg or higher, HU-308 10 and 50 mg/kg",no pharmacological effect was observed
"CCCCC/C=C\C/C=C\C/C=C\C/C=C\CCCC(=O)O [AA, arachidonic acid]",time after which swelling disappeared,mouse ear; topical AA 1.25% (w/v),2 days
same,time of peak ear swelling after the application,mouse ear; topical application on ear,one
same,ear swelling induced by application on the ear,"mouse ear; topical in acetone, 2-AG-E 1 or 10%, HU-308 10%, AA 1.25% (w/v)",swelling that reached a peak one hour after the application
CCCCOc1c(OC)ccc2cc(C(=O)NCCc3ccc(F)cc3)c(=O)[nH]c12 [C],remaining activity at 0.1 µM,CB2 [4],212%
"CCCCC/C=C\C/C=C\C/C=C\C/C=C\CCCC(=O)OC(CO)CO [Compound 2-AG, 2-arachidonoylglycerol]",forskolin-stimulated cAMP production,"CB2 [4]; hCB2-expressing CHO cells, statement in definitions",suppress the forskolin-stimulated cAMP production
CCCCCOc1c(OC)ccc2c1CC(=O)N(CCCN1CCOCC1)C2=O [I],remaining activity at 0.1 µM,CB2 [4],125%
"CCCCC/C=C\C/C=C\C/C=C\C/C=C\CCCCOC(CO)CO [Compound 2-AG-E, 2-arachidonoylglycerol ether]",ear swelling induced by application on the ear,"mouse ear; mouse, in vivo",concentration-dependent ear swelling
same,time of peak ear swelling after the application,"mouse ear; mouse, in vivo",1 to 2 h
same,"2-AG-E-induced dermatitis, CB2-deficient mice, very late phase",[7]; CB2-KO,no significant inflammation was observed
same,"2-AG-E-induced dermatitis, CB2-deficient mice, early phase","[7]; CB2-KO, topical 2-AG-E 100 mg/mL",developed dermatitis in the early phase
same,"2-AG-E-induced dermatitis, CB2-deficient mice, late phase","[7]; CB2-KO, vs wild-type",inflammation was milder in the late phase
same,"2-AG-E-induced dermatitis (ear swelling), wild-type mice","[7]; wild-type C57BL/6 J, topical 2-AG-E 100 mg/mL",developed dermatitis in the very late phase in addition to the early phase and late phase
same,"2-AG-E-induced dermatitis, mast cell-deficient (WBB6F1-W/Wv) mice",[8],developed dermatitis
same,"2-AG-E-induced dermatitis, wild-type (WBB6F1-+/+) mice",[8]; vs mast cell-deficient mice,more severe dermatitis
same,forskolin-stimulated cAMP production,CB2 [4],suppress the forskolin-stimulated cAMP production
same,functional character at CB2 (inverse agonist / agonist),CB2 [4],agonists
